Here are results for one substance from patent US8097581B2, “Anti-wrinkle cosmetic composition” (Grant Industries Inc., priority 2007, dated 2012).

In one test the test system is fibroblast cultures. Put plainly: Total protein production stimulation (method of Skehan et al.). To be noted: 10 ng/ml; positive control. Format: cell-based, human. The method, then:
The stimulation of metabolic activity by RD1071 also translated into an increase of total protein content in fibroblast cultures. […] For example, UV radiation and aging are associated with the increased proteolytic activity in the skin. The stimulation of total protein production could counterbalance the loss of proteins caused by this increased proteolytic activity. Total protein was measured using the method of Skehan et al. (1990). […] The basic fibroblast growth factor, bFGF, was again used as a positive control.

In test [1] the test system is human dermal fibroblast cultures. Kind of test: Stimulation of mitochondrial metabolic activity (MTT method). Format: cell-based. To be noted: 10 ng/ml; positive control. The source says:
In order to maintain youthful appearance, skin needs to constantly replace and regenerate its damaged components. This is predominantly the role of dermal fibroblasts. How well this job is done depends on the metabolic vigor of these cells as damaged or dormant fibroblasts will not be able to actively produce the replacement parts for the skin. This is why the stimulation of their metabolic activity is viewed as beneficial to the skin, not unlike the stimulation of metabolic activity is beneficial to the muscle. We tested the effect of RD1071 on the metabolic activity of mitochondria of human dermal fibroblast cultures using MTT method (Berridge et al., 1993). Mitochondria are cellular powerhouses producing energy (ATP) for the entire cell. […] Thus, example 1 (RD1071) increases cellular metabolism in a dose-dependant manner. The positive control in this experiment is use of basic fibroblast growth factor, bFGF at 10 ng/ml concentration.
In general terms: Formazan colour is commonly taken as a measure of viable cells.

Take “bFGF: basic fibroblast growth factor, positive control at 10 ng/ml”: the “Protein Stimulation % Control” value in the test on fibroblast cultures is 118 % Control. Besides, the “Mitochondrial Metabolism % Control” value in test [1] turned out to be 174 % Control.
